Source: the supplement of paper PMC13380429

Key:
Conditions in all cases: 72 h
Caco-2 [1] = experiment: cell viability relative to DMSO; higher = less toxic
Calu-3 [2] = experiment: as above
HepG2 [3] = experiment: as above
U2OS [4] = experiment: as above
Vero E6 [5] = experiment: as above
Caco-2 [6] = experiment: relative viability EC50 (midpoint between 100% and the lowest measured viability); higher = less toxic
Calu-3 [7] = experiment: as above
HepG2 [8] = experiment: as above
U2OS [9] = experiment: as above
Vero E6 [10] = experiment: as above
Caco-2 [11] = experiment: drug sensitivity score (DSS) for viability; higher = more toxic; extreme values may be limits of the assay
Calu-3 [12] = experiment: as above
HepG2 [13] = experiment: as above
U2OS [14] = experiment: as above
Vero E6 [15] = experiment: as above

Row | SMILES | cell viability (Caco-2 [1]; 1 nM) | cell viability (Caco-2 [1]; 10 nM) | cell viability (Caco-2 [1]; 100 nM) | cell viability (Caco-2 [1]; 1000 nM) | cell viability (Caco-2 [1]; 10000 nM) | cell viability (Calu-3 [2]; 1 nM) | cell viability (Calu-3 [2]; 10 nM) | cell viability (Calu-3 [2]; 100 nM) | cell viability (Calu-3 [2]; 1000 nM) | cell viability (Calu-3 [2]; 10000 nM) | cell viability (HepG2 [3]; 1 nM) | cell viability (HepG2 [3]; 10 nM) | cell viability (HepG2 [3]; 100 nM) | cell viability (HepG2 [3]; 1000 nM) | cell viability (HepG2 [3]; 10000 nM) | cell viability (U2OS [4]; 1 nM) | cell viability (U2OS [4]; 10 nM) | cell viability (U2OS [4]; 100 nM) | cell viability (U2OS [4]; 1000 nM) | cell viability (U2OS [4]; 10000 nM) | cell viability (Vero E6 [5]; 1 nM) | cell viability (Vero E6 [5]; 10 nM) | cell viability (Vero E6 [5]; 100 nM) | cell viability (Vero E6 [5]; 1000 nM) | cell viability (Vero E6 [5]; 10000 nM) | relative viability EC50 (Caco-2 [6]) | relative viability EC50 (Calu-3 [7]) | relative viability EC50 (HepG2 [8]) | relative viability EC50 (U2OS [9]) | relative viability EC50 (Vero E6 [10]) | drug sensitivity score (Caco-2 [11]) | drug sensitivity score (Calu-3 [12]) | drug sensitivity score (HepG2 [13]) | drug sensitivity score (U2OS [14]) | drug sensitivity score (Vero E6 [15])
1 | O=C1NC(=O)C(c2ccccc2[N+](=O)[O-])=C1Nc1ccc(O)c(Cl)c1 | 98.1% | 94.3% | 104% | 95.7% | 107% | 91.4% | 91.9% | 94.4% | 85.9% | 88.9% | 102% | 97.1% | 95.5% | 104% | 100% | 93.5% | 94.9% | 101% | 103% | 104% | 101% | 103% | 98.8% | 105% | 105% | > 10 µM | > 10 µM | > 10 µM | > 10 µM | > 10 µM | 0 | 0 | 0 | 0 | 0
2 | O=S(=O)(c1ccccc1)c1cnc2c(N3CCNCC3)cccc2c1 | 95.9% | 101% | 102% | 94.8% | 101% | 90.2% | 96.5% | 104% | 96.7% | 98.4% | 93.8% | 105% | 97.1% | 108% | 87.2% | 102% | 96.8% | 102% | 99% | 97% | 93.3% | 97.4% | 95% | 97.3% | 106% | > 10 µM | > 10 µM | > 10 µM | > 10 µM | > 10 µM | 0 | 0 | 0 | 0 | 0
3 | OC(CN1CCN(c2cccc(Cl)c2)CC1)C(c1ccccc1)c1ccccc1 (stereo not given) | 93.3% | 101% | 101% | 94.4% | 105% | 102% | 110% | 98.6% | 99.9% | 104% | 103% | 102% | 92.4% | 108% | 102% | 95.2% | 97.9% | 98.2% | 95.8% | 92.8% | 95.5% | 96.9% | 88.9% | 99.7% | 104% | > 10 µM | > 10 µM | > 10 µM | > 10 µM | > 10 µM | 0 | 0 | 0 | 0 | 0
4 | c1ccc2c(c1)CCCc1cc(NCCN3CCOCC3)nnc1-2 | 97.7% | 99.2% | 96.1% | 105% | 87.7% | 99.7% | 105% | 96.1% | 113% | 94.9% | 101% | 101% | 94.4% | 87.7% | 101% | 97.1% | 99.7% | 92.9% | 98.1% | 96.6% | 104% | 98.9% | 108% | 104% | 99% | > 10 µM | > 10 µM | > 10 µM | > 10 µM | > 10 µM | 0 | 0 | 0 | 0 | 0
5 | CC(C)(C)c1cc(C(C)(C)C)c2c(c1)C(O)(C(F)(F)F)C(=O)O2 (racemic) [rac-BHFF] | 94.3% | 91.8% | 87.4% | 93% | 94.6% | 95.9% | 93.4% | 94.8% | 93.2% | 106% | 92.4% | 105% | 98.2% | 104% | 91.8% | 100% | 96.8% | 103% | 99.1% | 108% | 99% | 103% | 99.3% | 103% | 99% | > 10 µM | > 10 µM | > 10 µM | > 10 µM | > 10 µM | 0 | 0 | 0 | 0 | 0
6 | CC(=O)SC[C@@H](Cc1ccccc1)C(=O)NCC(=O)OCc1ccccc1 (racemic) [racecadotril] | 94.4% | 95.7% | 99.7% | 92.6% | 122% | 92.8% | 96.7% | 95.5% | 105% | 108% | 105% | 101% | 88.8% | 89.7% | 102% | 101% | 96.8% | 97.4% | 98.9% | 102% | 105% | 99.3% | 94.1% | 101% | 109% | > 10 µM | > 10 µM | > 10 µM | > 10 µM | > 10 µM | 0 | 0 | 0.6 | 0 | 0
7 | O[C@@H]1CCCC[C@H]1N1CCC(c2ccccc2)CC1 (racemic) [vesamicol] | 95.3% | 83.6% | 99.5% | 92.9% | 95.2% | 101% | 106% | 113% | 105% | 97.2% | 85.7% | 111% | 102% | 97.1% | 98% | 95.2% | 96.5% | 102% | 101% | 101% | 94% | 95.6% | 93.3% | 101% | 102% | > 10 µM | > 10 µM | > 10 µM | > 10 µM | > 10 µM | 0 | 0 | 0 | 0 | 0
8 | c1ccc2c(Cc3c[nH]c4ccccc34)c[nH]c2c1 [3,3'-diindolylmethane] | 108% | 117% | 91.3% | 117% | 102% | 104% | 98.5% | 97.2% | 104% | 98.6% | 93.6% | 101% | 97% | 86.8% | 91.7% | 100% | 102% | 101% | 104% | 94.3% | 99% | 102% | 100% | 93.4% | 89.3% | > 10 µM | > 10 µM | > 10 µM | > 10 µM | > 10 µM | 0 | 0 | 1.1 | 0 | 0.1
9 | O=[N+]([O-])c1cccc2c(Br)n[nH]c12 [3-bromo-7-nitroindazole] | 106% | 102% | 93.8% | 104% | 99.3% | 102% | 88.4% | 97.3% | 87% | 98.2% | 94.4% | 99% | 98.3% | 97.5% | 102% | 97.6% | 101% | 99% | 104% | 98.8% | 100% | 97.5% | 98.6% | 95.8% | 91.2% | > 10 µM | > 10 µM | > 10 µM | > 10 µM | > 10 µM | 0 | 0 | 0 | 0 | 0
10 | NS(=O)(=O)c1ccc2c(c1)C1C=CCC1C(c1ccc(Br)cc1)N2 (stereo not given) [4BP-TQS] | 102% | 97.1% | 99.6% | 98.5% | 97.1% | 110% | 89.3% | 101% | 96.3% | 105% | 101% | 105% | 89.5% | 91.5% | 94% | 97.8% | 98.6% | 103% | 96.6% | 97.5% | 104% | 99.1% | 102% | 104% | 100% | > 10 µM | > 10 µM | > 10 µM | > 10 µM | > 10 µM | 0 | 0 | 0.2 | 0 | 0
11 | CCCN(CCC)[C@H]1CCc2ccc(O)cc2C1 [7-hydroxy-DPAT] | 96.5% | 95.4% | 106% | 100% | 96.4% | 92.7% | 89.7% | 98.7% | 102% | 96% | 112% | 106% | 92.8% | 99.9% | 99.5% | 101% | 97.1% | 101% | 104% | 103% | 101% | 105% | 101% | 104% | 99.4% | > 10 µM | > 10 µM | > 10 µM | > 10 µM | > 10 µM | 0 | 0 | 0 | 0 | 0
12 | C/C=C1\[C@H]2C=C(C)C[C@]1(N)c1ccc(=O)[nH]c1C2 [(-)-Huperzine A] | 103% | 97.7% | 90.6% | 100% | 107% | 91% | 96.7% | 96.1% | 106% | 101% | 106% | 97.4% | 102% | 93% | 97.5% | 95.1% | 101% | 98.8% | 103% | 98.3% | 93% | 96.8% | 98% | 90.7% | 107% | > 10 µM | > 10 µM | > 10 µM | > 10 µM | > 10 µM | 0 | 0 | 0 | 0 | 0
